Reference: article PMC4490784, “Compensatory induction of MYC expression by sustained CDK9 inhibition via a BRD4-dependent mechanism” (eLife, 2015)

Assays:
Test in all cases: KINOMEscan binding assay
PRKX = target: T1, PRKX (Homo sapiens, UniProt P51817); conditions: read-out: % Retention on Solid Support
T1 construct: purchased DiscoveRx KINOMEscan
Outline: (§1)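 Active site-directed competition binding measured kinase engagement within a panel of over 400 kinases. i-CDK9 was tested at two concentrations, 1 and 10 µM.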

AURKC = target: T2, AURKC (Homo sapiens, UniProt Q9UQB9); conditions: read-out: % Retention on Solid Support
T2 construct: purchased DiscoveRx KINOMEscan
Outline: as §1

[1] = target: T3, RSK4(Kin.Dom.2-C-terminal) (Homo sapiens, UniProt Q9UK32)
T3 construct: RSK4(Kin.Dom.2-C-terminal); purchased DiscoveRx KINOMEscan
Outline: as §1

PAK6 = target: T4, PAK6 (Homo sapiens, UniProt Q9NQU5); conditions: read-out: % Retention on Solid Support
T4 construct: purchased DiscoveRx KINOMEscan
Outline: as §1

WEE2 = target: T5, WEE2 (Homo sapiens, UniProt P0C1S8); conditions: read-out: % Retention on Solid Support
T5 construct: purchased DiscoveRx KINOMEscan
Outline: as §1

TGFBR1 = target: T6, TGFBR1 (Homo sapiens, UniProt P36897); conditions: read-out: % Retention on Solid Support
T6 construct: purchased DiscoveRx KINOMEscan
T6 sequence (P36897 34-503): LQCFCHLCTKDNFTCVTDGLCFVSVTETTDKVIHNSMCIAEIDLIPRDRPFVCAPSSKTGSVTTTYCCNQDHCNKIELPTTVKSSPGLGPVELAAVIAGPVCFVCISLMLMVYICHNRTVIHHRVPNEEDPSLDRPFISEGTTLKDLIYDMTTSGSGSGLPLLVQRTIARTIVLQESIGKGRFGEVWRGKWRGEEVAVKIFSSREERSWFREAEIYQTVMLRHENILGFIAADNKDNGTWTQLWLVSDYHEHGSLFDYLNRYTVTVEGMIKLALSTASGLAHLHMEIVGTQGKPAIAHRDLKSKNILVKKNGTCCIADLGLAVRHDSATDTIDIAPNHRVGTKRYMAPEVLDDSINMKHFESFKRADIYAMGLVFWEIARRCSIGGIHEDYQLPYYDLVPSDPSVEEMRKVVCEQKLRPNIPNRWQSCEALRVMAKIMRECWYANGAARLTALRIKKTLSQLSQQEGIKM
Outline: as §1

MEK2 = target: T7, MEK2 (Homo sapiens, UniProt P36507); conditions: read-out: % Retention on Solid Support
T7 construct: purchased DiscoveRx KINOMEscan
T7 sequence (P36507 whole entry): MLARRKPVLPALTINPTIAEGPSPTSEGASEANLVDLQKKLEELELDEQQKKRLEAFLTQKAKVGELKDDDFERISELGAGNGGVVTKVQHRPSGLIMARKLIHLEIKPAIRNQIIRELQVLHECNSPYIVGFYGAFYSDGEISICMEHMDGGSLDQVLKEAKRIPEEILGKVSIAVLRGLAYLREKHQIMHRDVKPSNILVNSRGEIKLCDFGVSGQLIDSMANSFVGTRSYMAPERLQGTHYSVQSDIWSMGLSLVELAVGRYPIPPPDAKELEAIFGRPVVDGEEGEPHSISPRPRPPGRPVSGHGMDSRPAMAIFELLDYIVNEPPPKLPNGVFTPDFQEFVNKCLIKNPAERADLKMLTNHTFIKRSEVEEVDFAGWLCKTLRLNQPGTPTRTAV
Outline: as §1

SRPK1 = target: T8, SRPK1 (Homo sapiens, UniProt Q96SB4); conditions: read-out: % Retention on Solid Support
T8 construct: purchased DiscoveRx KINOMEscan
Outline: as §1

CSNK1A1L = target: T9, CSNK1A1L (Homo sapiens, UniProt Q8N752); conditions: read-out: % Retention on Solid Support
T9 construct: purchased DiscoveRx KINOMEscan
Outline: as §1

GSK3B = target: T10, GSK3B (Homo sapiens, UniProt P49841); conditions: read-out: % Retention on Solid Support
T10 construct: purchased DiscoveRx KINOMEscan
T10 sequence (P49841 whole entry): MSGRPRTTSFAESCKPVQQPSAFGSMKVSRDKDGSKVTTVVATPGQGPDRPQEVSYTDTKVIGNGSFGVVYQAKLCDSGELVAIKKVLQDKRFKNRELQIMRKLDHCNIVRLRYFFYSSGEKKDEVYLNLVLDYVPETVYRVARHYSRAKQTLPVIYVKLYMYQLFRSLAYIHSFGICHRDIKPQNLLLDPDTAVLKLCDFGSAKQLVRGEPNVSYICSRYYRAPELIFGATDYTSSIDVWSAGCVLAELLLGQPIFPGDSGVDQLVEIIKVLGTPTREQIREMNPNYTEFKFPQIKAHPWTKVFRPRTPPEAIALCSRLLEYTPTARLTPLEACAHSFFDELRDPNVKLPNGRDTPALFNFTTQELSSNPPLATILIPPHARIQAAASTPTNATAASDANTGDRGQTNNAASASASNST
Outline: as §1

ULK2 = target: T11, ULK2 (Homo sapiens, UniProt Q8IYT8); conditions: read-out: % Retention on Solid Support
T11 construct: purchased DiscoveRx KINOMEscan
T11 sequence (Q8IYT8 whole entry): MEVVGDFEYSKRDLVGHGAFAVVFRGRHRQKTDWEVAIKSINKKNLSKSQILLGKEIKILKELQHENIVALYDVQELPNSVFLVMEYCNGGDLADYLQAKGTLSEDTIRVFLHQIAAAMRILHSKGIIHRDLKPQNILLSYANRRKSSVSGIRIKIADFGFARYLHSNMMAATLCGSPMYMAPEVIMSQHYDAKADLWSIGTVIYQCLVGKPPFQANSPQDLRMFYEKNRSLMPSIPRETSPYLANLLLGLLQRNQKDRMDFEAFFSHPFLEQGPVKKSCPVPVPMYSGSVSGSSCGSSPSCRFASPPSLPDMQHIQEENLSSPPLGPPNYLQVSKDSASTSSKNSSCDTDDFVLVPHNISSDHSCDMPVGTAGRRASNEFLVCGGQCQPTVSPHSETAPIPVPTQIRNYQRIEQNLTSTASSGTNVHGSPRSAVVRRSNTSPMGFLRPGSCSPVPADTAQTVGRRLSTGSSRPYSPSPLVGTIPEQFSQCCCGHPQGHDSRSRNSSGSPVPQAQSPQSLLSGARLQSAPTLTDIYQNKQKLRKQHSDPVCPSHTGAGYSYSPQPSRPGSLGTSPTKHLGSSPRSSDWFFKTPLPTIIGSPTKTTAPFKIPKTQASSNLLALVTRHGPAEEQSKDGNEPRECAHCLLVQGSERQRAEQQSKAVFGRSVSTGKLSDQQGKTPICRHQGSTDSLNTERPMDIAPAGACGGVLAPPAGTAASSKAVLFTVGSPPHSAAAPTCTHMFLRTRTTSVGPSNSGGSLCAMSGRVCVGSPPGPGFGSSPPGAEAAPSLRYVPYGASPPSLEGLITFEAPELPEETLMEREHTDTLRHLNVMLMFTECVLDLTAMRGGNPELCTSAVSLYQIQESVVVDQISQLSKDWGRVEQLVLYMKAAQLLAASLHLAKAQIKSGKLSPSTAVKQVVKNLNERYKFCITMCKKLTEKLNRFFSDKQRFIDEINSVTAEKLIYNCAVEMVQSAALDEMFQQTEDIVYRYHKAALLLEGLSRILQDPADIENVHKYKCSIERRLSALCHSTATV
Outline: as §1

LOK = target: T12, LOK (Homo sapiens, UniProt O94804)
T12 construct: purchased DiscoveRx KINOMEscan
Outline: as §1

GSK3A = target: T13, GSK3A (Homo sapiens, UniProt P49840); conditions: read-out: % Retention on Solid Support
T13 construct: purchased DiscoveRx KINOMEscan
Outline: as §1

PHKG2 = target: T14, PHKG2 (Homo sapiens, UniProt P15735); conditions: read-out: % Retention on Solid Support
T14 construct: purchased DiscoveRx KINOMEscan
Outline: as §1

DRAK2 = target: T15, DRAK2 (Homo sapiens, UniProt O94768); conditions: read-out: % Retention on Solid Support
T15 construct: purchased DiscoveRx KINOMEscan
Outline: as §1

EGFR = target: T16, EGFR (Homo sapiens, UniProt P00533)
T16 construct: purchased DiscoveRx KINOMEscan
T16 sequence (P00533 25-1210): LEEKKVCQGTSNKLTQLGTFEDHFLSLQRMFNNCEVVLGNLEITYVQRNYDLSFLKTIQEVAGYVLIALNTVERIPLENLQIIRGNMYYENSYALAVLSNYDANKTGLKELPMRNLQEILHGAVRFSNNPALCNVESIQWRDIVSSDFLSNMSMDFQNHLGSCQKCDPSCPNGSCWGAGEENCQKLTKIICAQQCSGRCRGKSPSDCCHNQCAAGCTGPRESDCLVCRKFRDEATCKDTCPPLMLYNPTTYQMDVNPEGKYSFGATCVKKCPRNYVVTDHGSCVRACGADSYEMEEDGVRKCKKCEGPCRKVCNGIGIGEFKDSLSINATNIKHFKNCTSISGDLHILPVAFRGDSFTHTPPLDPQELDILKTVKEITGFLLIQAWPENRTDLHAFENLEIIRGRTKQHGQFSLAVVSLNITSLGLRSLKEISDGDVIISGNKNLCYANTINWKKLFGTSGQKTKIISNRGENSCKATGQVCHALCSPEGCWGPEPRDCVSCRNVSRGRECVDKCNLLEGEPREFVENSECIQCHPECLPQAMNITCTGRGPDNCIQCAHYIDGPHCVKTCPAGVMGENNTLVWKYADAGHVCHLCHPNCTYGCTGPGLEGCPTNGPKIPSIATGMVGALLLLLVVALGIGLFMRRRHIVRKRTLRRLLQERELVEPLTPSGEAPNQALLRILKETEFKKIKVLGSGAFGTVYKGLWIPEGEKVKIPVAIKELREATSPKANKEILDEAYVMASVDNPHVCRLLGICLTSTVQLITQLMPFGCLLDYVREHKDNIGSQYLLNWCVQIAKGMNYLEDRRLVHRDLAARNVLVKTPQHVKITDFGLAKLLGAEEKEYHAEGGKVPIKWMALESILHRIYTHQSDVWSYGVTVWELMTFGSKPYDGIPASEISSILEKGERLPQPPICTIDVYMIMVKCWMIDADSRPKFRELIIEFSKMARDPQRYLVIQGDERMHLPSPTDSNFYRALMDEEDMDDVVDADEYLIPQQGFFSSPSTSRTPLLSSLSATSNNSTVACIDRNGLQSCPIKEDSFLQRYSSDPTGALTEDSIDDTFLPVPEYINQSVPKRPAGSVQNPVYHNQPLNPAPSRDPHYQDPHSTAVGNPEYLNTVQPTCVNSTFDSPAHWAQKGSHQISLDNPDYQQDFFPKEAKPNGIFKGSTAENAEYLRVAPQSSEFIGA
Outline: as §1

[2] = target: T17, ABL1(M351T)-phosphorylated (Homo sapiens, UniProt P00519, M351T); conditions: 1 µM i-CDK9; read-out: % Retention on Solid Support
T17 construct: purchased DiscoveRx KINOMEscan
Outline: as §1

MEK6 = target: T18, MEK6 (Homo sapiens, UniProt P52564); conditions: read-out: % Retention on Solid Support
T18 construct: purchased DiscoveRx KINOMEscan
Outline: as §1

TNK1 = target: T19, TNK1 (Homo sapiens, UniProt Q13470); conditions: read-out: % Retention on Solid Support
T19 construct: purchased DiscoveRx KINOMEscan
Outline: as §1

LIMK2 = target: T20, LIMK2 (Homo sapiens, UniProt P53671); conditions: read-out: % Retention on Solid Support
T20 construct: purchased DiscoveRx KINOMEscan
T20 sequence (P53671 whole entry): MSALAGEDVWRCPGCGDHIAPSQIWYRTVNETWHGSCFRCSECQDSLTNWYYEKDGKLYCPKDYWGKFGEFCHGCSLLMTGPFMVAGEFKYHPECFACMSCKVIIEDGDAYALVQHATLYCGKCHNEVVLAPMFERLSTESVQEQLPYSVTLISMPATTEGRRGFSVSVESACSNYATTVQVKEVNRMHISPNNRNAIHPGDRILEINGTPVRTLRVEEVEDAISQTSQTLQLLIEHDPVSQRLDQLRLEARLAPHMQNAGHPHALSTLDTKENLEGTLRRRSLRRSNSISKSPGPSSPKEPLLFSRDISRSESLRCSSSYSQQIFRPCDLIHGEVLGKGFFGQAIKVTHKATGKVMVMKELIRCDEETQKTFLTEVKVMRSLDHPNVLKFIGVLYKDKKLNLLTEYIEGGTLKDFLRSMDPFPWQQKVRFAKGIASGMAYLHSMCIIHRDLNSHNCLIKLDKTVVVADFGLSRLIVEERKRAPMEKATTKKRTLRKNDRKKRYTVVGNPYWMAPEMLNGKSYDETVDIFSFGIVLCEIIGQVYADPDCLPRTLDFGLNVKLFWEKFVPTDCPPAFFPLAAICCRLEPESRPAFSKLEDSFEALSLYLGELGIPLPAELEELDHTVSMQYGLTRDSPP
Outline: as §1

PFCDPK1(P.falciparum) = target: T21, PFCDPK1(P.falciparum) (Plasmodium falciparum, UniProt P62344); conditions: 1 µM i-CDK9; read-out: % Retention on Solid Support
T21 construct: purchased DiscoveRx KINOMEscan
Outline: as §1

KIT = target: T22, KIT (Homo sapiens, UniProt P10721); conditions: read-out: % Retention on Solid Support
T22 construct: purchased DiscoveRx KINOMEscan
Outline: as §1

TNNI3K = target: T23, TNNI3K (Homo sapiens, UniProt Q59H18); conditions: read-out: % Retention on Solid Support
T23 construct: purchased DiscoveRx KINOMEscan
Outline: as §1

PLK3 = target: T24, PLK3 (Homo sapiens, UniProt Q9H4B4); conditions: read-out: % Retention on Solid Support
T24 construct: purchased DiscoveRx KINOMEscan
Outline: as §1

NEK3 = target: T25, NEK3 (Homo sapiens, UniProt P51956); conditions: 1 µM i-CDK9; read-out: % Retention on Solid Support
T25 construct: purchased DiscoveRx KINOMEscan
Outline: as §1

FGFR3(G697C) = target: T26, FGFR3(G697C) (Homo sapiens, UniProt P22607, G697C); conditions: read-out: % Retention on Solid Support
T26 construct: purchased DiscoveRx KINOMEscan
Outline: as §1

CSNK1E = target: T27, CSNK1E (Homo sapiens, UniProt P49674); conditions: read-out: % Retention on Solid Support
T27 construct: purchased DiscoveRx KINOMEscan
T27 sequence (P49674 whole entry): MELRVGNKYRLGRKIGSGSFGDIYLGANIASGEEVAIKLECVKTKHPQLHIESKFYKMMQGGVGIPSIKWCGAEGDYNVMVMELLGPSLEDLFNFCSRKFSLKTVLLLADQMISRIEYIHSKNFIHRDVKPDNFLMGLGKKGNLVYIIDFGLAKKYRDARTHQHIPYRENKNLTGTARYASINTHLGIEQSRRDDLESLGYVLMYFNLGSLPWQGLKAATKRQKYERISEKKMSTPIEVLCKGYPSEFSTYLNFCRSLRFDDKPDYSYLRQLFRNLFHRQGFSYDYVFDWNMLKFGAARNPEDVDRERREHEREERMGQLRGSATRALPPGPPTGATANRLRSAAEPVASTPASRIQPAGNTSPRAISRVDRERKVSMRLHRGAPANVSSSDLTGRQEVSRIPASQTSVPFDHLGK
Outline: as §1

DYRK1A = DYRK1A (Homo sapiens, UniProt Q13627); conditions: read-out: % Retention on Solid Support
Outline: as §1

RIPK5 = target: T28, RIPK5 (Homo sapiens, UniProt Q6XUX3); conditions: 1 µM i-CDK9; read-out: % Retention on Solid Support
T28 construct: purchased DiscoveRx KINOMEscan
Outline: as §1

PIK3CA(H1047Y) = target: T29, PIK3CA(H1047Y) (Homo sapiens, UniProt P42336, H1047Y); conditions: read-out: % Retention on Solid Support
T29 construct: purchased DiscoveRx KINOMEscan
Outline: as §1

T1 sequence (P51817 whole entry): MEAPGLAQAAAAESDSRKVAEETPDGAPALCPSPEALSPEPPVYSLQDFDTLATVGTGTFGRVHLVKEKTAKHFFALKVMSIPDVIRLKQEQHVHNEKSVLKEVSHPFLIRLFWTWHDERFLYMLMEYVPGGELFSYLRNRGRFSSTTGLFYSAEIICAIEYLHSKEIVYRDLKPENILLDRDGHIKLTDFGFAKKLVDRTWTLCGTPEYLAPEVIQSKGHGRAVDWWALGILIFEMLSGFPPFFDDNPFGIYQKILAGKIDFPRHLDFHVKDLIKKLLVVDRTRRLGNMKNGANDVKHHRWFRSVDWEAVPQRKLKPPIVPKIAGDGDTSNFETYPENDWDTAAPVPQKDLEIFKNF

N[C@H]1CC[C@H](Nc2cc(-c3cccc(NCc4cccc(F)c4)n3)c(Cl)cn2)CC1 [i-CDK9, N2′-(trans-4-aminocyclohexyl)-5′-chloro-N6-(3-fluorobenzyl)-2,4′-bipyridine-2′,6-diamine]
remaining binding at 1 µM (PRKX; 1 µM i-CDK9): 100%
remaining binding at 10 µM (PRKX; 10 µM i-CDK9): 90%
remaining binding at 1 µM (AURKC; 1 µM i-CDK9): 100%
remaining binding at 10 µM (AURKC; 10 µM i-CDK9): 71%
% Retention on Solid Support ([1]; 1 µM i-CDK9): 53%
% Retention on Solid Support ([1]; 10 µM i-CDK9): 51%
remaining binding at 1 µM (PAK6; 1 µM i-CDK9): 100%
remaining binding at 10 µM (PAK6; 10 µM i-CDK9): 100%
remaining binding at 1 µM (WEE2; 1 µM i-CDK9): 100%
remaining binding at 10 µM (WEE2; 10 µM i-CDK9): 100%
remaining binding at 1 µM (TGFBR1; 1 µM i-CDK9): 95%
remaining binding at 10 µM (TGFBR1; 10 µM i-CDK9): 100%
remaining binding at 1 µM (MEK2; 1 µM i-CDK9): 96%
remaining binding at 10 µM (MEK2; 10 µM i-CDK9): 100%
remaining binding at 1 µM (SRPK1; 1 µM i-CDK9): 100%
remaining binding at 10 µM (SRPK1; 10 µM i-CDK9): 70%
remaining binding at 1 µM (CSNK1A1L; 1 µM i-CDK9): 97%
remaining binding at 10 µM (CSNK1A1L; 10 µM i-CDK9): 100%
remaining binding at 1 µM (GSK3B; 1 µM i-CDK9): 79%
remaining binding at 10 µM (GSK3B; 10 µM i-CDK9): 74%
remaining binding at 1 µM (ULK2; 1 µM i-CDK9): 100%
remaining binding at 10 µM (ULK2; 10 µM i-CDK9): 100%
% Retention on Solid Support (LOK; 1 µM i-CDK9): 89%
% Retention on Solid Support (LOK; 10 µM i-CDK9): 100%
remaining binding at 1 µM (GSK3A; 1 µM i-CDK9): 93%
remaining binding at 10 µM (GSK3A; 10 µM i-CDK9): 8.7%
remaining binding at 1 µM (PHKG2; 1 µM i-CDK9): 100%
remaining binding at 10 µM (PHKG2; 10 µM i-CDK9): 72%
remaining binding at 1 µM (DRAK2; 1 µM i-CDK9): 82%
remaining binding at 10 µM (DRAK2; 10 µM i-CDK9): 72%
% Retention on Solid Support (EGFR; 1 µM i-CDK9): 4.7%
% Retention on Solid Support (EGFR; 10 µM i-CDK9): 100%
remaining binding at 1 µM [2]: 96%
remaining binding at 1 µM (MEK6; 1 µM i-CDK9): 96%
remaining binding at 10 µM (MEK6; 10 µM i-CDK9): 100%
remaining binding at 1 µM (TNK1; 1 µM i-CDK9): 100%
remaining binding at 10 µM (TNK1; 10 µM i-CDK9): 65%
remaining binding at 1 µM (LIMK2; 1 µM i-CDK9): 100%
remaining binding at 10 µM (LIMK2; 10 µM i-CDK9): 100%
remaining binding at 1 µM (PFCDPK1(P.falciparum)): 100%
remaining binding at 1 µM (KIT; 1 µM i-CDK9): 91%
remaining binding at 10 µM (KIT; 10 µM i-CDK9): 100%
remaining binding at 1 µM (TNNI3K; 1 µM i-CDK9): 81%
remaining binding at 10 µM (TNNI3K; 10 µM i-CDK9): 100%
remaining binding at 1 µM (PLK3; 1 µM i-CDK9): 96%
remaining binding at 10 µM (PLK3; 10 µM i-CDK9): 89%
remaining binding at 1 µM (NEK3): 100%
remaining binding at 1 µM (FGFR3(G697C); 1 µM i-CDK9): 96%
remaining binding at 10 µM (FGFR3(G697C); 10 µM i-CDK9): 100%
remaining binding at 1 µM (CSNK1E; 1 µM i-CDK9): 100%
remaining binding at 10 µM (CSNK1E; 10 µM i-CDK9): 45%
remaining binding at 1 µM (DYRK1A; 1 µM i-CDK9): 1.3%
remaining binding at 10 µM (DYRK1A; 10 µM i-CDK9): 0%
remaining binding at 1 µM (RIPK5): 100%
remaining binding at 1 µM (PIK3CA(H1047Y); 1 µM i-CDK9): 100%
remaining binding at 10 µM (PIK3CA(H1047Y); 10 µM i-CDK9): 100%
